Results on three compounds are retold here after article PMC6286348, “Inhibitor binding mode and allosteric regulation of Na^+-glucose symporters” (Nature Communications, 2018).

In one experiment the target is T1, hSGLT2 A395T (Homo sapiens, UniProt P31639, A395T).
T1 construct: expressed in transfected cells; host or cells: Xenopus laevis oocytes injected with hSGLT2 A395T cRNA and MAP17 cRNA
The experiment in a line: cell-based. The note with it: poor expression; n = 3 oocytes (n = 2 for dapa-aglycon). As for the experimental part: (§1) Xenopus laevis (Nasco) oocytes (V–VI) were prepared as previously described[20] and injected with 50 nl of cRNA (1 μg/μl). […] Briefly, oocytes were incubated for 30 min in the presence of 50 μM αMDG (5 μM [^14C]αMDG) in a buffer containing (in mM) 100 NaCl, 2 KCl, 1 MgCl2, 1 CaCl2, and 10 N-(2-hydroxyethyl)piperazine-N′-(2-ethanesulfonic acid) (HEPES)/Tris (pH 7.5). After incubation, oocytes were rinsed thoroughly with ice-cold buffer containing (mM) 100 choline Cl^–, 2 KCl, 1 MgCl2, 1 CaCl2, and 10 HEPES/Tris (pH 7.5), individually lysed with 5% sodium dodecyl sulfate, and assayed for radioactivity.
(§2) Injected oocytes were incubated at 18 °C, and after 3–4 days, two electrode voltage clamp experiments were performed as previously described. Briefly, SGLT inward glucose currents were measured as a function of the external Na^+ (0–100 mM NaCl), sugar (0–100 mM αMDG), and inhibitors (0.001–100 μM). Steady-state and hSGLT1 capacitive currents were recorded using voltage steps from a holding voltage, Vh of −60 mV, to voltages in the range of −180 to +50 mV in 20 mV increments. The apparent affinity of αMDG, K0.5, was estimated from plots of the inward current as a function of the external αMDG concentration. Under our experimental conditions, K0.5 is a close approximation of the αMDG binding constant to the Na^+-bound outward conformation of SGLT. The apparent affinity for Na^+, K0.5, was estimated from plots of the αMDG inward current as a function of external Na^+ concentration. For hSGLT1 the interpretation of K0.5 is more complex owing to the presence of two Na^+ binding sites. In this case, the K0.5 is a lumped coefficient for Na^+ binding to the two sites in the outward-facing hSGLT1 conformation. […] The Na^+-to-αMDG stoichiometry was determined from the reversal potential measurements using the Gibbs free energy as previously described. The stoichiometry determinations were reinforced by estimates of αMDG and Na^+ Hill coefficients, and in some cases, by measurement of ^22Na and [^14C]αMDG uptakes under voltage clamp, [21].

For a further experiment, the target named is T2, hSGLT1 wild-type (Homo sapiens, UniProt P13866).
T2 construct: expressed in transfected cells; host or cells: Xenopus laevis oocytes injected with cRNA
T2 sequence (P13866 1-664): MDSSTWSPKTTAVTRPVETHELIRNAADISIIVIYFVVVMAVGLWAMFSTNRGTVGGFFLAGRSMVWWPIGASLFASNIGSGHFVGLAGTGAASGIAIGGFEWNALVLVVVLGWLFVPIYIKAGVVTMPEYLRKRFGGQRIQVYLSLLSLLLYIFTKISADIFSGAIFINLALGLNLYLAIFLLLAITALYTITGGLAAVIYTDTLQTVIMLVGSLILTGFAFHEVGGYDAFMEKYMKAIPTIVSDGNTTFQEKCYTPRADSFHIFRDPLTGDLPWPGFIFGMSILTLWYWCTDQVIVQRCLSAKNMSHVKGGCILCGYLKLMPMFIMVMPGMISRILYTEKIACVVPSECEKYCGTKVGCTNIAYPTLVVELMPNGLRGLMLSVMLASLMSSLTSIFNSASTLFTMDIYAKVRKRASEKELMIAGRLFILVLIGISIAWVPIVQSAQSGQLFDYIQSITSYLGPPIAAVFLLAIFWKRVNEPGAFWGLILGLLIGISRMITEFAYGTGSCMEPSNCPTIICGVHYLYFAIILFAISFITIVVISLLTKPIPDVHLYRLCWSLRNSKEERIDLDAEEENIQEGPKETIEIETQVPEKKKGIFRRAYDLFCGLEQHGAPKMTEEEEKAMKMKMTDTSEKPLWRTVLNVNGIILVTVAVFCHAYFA
The experiment in a line: SGLT current measurement (two electrode voltage clamp) in oocytes, hSGLT1 wild-type. In kind it is cell-based. The note with it: inhibition of αMDG currents (100 mM NaCl) or capacitive currents, 22 °C. As for the experimental part: as §1
(§3) Injected oocytes were incubated at 18 °C, and after 3–4 days, two electrode voltage clamp experiments were performed as previously described. Briefly, SGLT inward glucose currents were measured as a function of the external Na^+ (0–100 mM NaCl), sugar (0–100 mM αMDG), and inhibitors (0.001–100 μM). Steady-state and hSGLT1 capacitive currents were recorded using voltage steps from a holding voltage, Vh of −60 mV, to voltages in the range of −180 to +50 mV in 20 mV increments. The apparent affinity of αMDG, K0.5, was estimated from plots of the inward current as a function of the external αMDG concentration. […] The Na^+-to-αMDG stoichiometry was determined from the reversal potential measurements using the Gibbs free energy as previously described. […]
A general note: Two-electrode voltage clamp is typically applied to oocytes expressing channels or transporters.

The target of experiment [1] is T3, hSGLT2 wild-type (Homo sapiens, UniProt P31639).
T3 sequence (P31639 1-672): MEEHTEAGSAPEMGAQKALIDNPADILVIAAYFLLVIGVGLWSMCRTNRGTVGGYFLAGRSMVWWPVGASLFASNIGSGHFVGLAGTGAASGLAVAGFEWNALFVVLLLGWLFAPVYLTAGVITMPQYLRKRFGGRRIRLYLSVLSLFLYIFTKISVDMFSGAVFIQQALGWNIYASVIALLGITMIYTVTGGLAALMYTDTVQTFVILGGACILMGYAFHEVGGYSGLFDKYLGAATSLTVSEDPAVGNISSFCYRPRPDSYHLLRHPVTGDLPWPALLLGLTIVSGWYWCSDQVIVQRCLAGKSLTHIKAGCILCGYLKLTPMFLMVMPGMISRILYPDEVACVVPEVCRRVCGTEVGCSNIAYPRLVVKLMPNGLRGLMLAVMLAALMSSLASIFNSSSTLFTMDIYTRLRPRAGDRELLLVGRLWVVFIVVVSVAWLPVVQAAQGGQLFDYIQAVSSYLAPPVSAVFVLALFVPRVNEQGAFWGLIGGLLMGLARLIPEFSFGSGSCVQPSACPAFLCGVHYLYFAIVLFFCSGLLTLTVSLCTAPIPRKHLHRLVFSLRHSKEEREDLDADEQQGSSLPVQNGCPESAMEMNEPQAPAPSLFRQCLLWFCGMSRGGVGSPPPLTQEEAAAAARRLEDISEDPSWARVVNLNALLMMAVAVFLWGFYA
T3 sequence (Q13113 1-114 partner): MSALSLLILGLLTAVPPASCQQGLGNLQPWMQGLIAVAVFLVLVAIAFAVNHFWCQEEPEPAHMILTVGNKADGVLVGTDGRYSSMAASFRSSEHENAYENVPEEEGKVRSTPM
The experiment in a line: SGLT current measurement in oocytes, hSGLT2 wild-type (MAP17 co-injected). The note with it: 22 °C. In kind it is cell-based. Also noted: expressed in transfected cells; host or cells: Xenopus laevis oocytes injected with hSGLT2 cRNA and MAP17 cRNA. As for the experimental part: as §1, §2

A further experiment addresses T4, hSGLT1 T395A (Homo sapiens, UniProt P13866, T395A).
T4 construct: expressed in transfected cells; host or cells: Xenopus laevis oocytes injected with cRNA
T4 sequence (P13866 1-664 T395A): T2 sequence (P13866 1-664) with T395A
The experiment in a line: SGLT current measurement in oocytes, hSGLT1 T395A. To be noted: effect on αMDG currents in 30 mM αMDG, 22 °C. In kind it is cell-based. As for the experimental part: as §1, §3

The target in experiment [2] is T3, hSGLT2 wild-type. To be noted: cited from earlier work.
For another experiment, the target named is T5, hSGLT1 D268H (Homo sapiens, UniProt P13866, D268H).
T5 construct: expressed in transfected cells; host or cells: Xenopus laevis oocytes injected with cRNA
T5 sequence (P13866 1-664 D268H): T2 sequence (P13866 1-664) with D268H
The experiment in a line: SGLT current measurement in oocytes, hSGLT1 D268H. It is filed as cell-based. To be noted: D268H vs wild type. As for the experimental part:
as §1, §3

Residue numbers refer to the chain shown, from its start.

T1 sequence (P31639 whole entry A395T, one chain of several): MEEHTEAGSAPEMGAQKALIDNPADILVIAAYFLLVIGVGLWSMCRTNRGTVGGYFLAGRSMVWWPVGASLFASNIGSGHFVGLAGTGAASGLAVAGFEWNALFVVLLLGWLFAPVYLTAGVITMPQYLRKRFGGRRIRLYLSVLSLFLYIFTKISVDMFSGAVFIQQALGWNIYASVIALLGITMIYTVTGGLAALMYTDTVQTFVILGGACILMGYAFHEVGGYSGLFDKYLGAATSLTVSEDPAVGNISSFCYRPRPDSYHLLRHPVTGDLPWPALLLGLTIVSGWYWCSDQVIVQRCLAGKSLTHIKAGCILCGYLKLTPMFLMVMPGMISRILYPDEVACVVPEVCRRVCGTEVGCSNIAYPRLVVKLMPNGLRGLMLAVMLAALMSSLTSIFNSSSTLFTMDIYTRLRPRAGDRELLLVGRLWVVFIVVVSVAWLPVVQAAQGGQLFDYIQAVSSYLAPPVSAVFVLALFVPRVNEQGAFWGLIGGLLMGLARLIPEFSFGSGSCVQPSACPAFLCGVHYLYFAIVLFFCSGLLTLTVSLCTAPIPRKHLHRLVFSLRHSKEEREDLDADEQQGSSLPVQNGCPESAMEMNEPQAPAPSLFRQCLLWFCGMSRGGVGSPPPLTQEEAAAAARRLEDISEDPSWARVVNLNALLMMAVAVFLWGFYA

`CCOc1ccc(Cc2cc(O)ccc2Cl)cc1` [dapa-aglycon]: the inhibition constant Ki (commonly a measure of affinity in units of concentration, obtained from inhibition or displacement) at hSGLT2 A395T was greater than 600 µM; at hSGLT1 wild-type, 425 ± 50 µM; on hSGLT2 wild-type [1], 110 ± 30 µM; on hSGLT1 T395A it was 187 ± 80 µM.

With `O=C(CCc1ccc(O)cc1)c1c(O)cc(O)cc1O` [phloretin], the Ki at hSGLT2 A395T turned out to be 129 ± 70 µM; on hSGLT2 wild-type [1] it was 27 ± 3 µM.

`CCOc1ccc(Cc2cc([C@@H]3O[C@H](CO)[C@@H](O)[C@H](O)[C@H]3O)ccc2Cl)cc1` [dapagliflozin]: on hSGLT2 wild-type [2], the “higher potency for hSGLT2 (vs hSGLT1)” value is given as greater than 100 fold. Besides, on hSGLT1 D268H, the “decrease of Ki vs wild-type hSGLT1” value was 13 fold.
